The source of these data is paper PMC8232704, “Hydrophobic Tagging-Mediated Degradation of Transcription Coactivator SRC-1” (International Journal of Molecular Sciences, 2021).

Bridge positions count the residues as written; N and C are the ends. Square brackets hold non-standard residues; d marks the D form. Peptide text beside a SMILES is read from it. N(1-adamantyl)Gly = O=C(O)CNC12CC3CC(CC(C3)C1)C2; Cha = N[C@@H](CC1CCCCC1)C(=O)O; S5 = C=CCCC[C@](C)(N)C(=O)O; PEG3 = NCCOCCOCCOCCC(=O)O

The target of data set [1] is T1, SRC-1 in MDA-MB-231 cells (Homo sapiens, UniProt Q15788).
T1 construct: endogenous in cells; host or cells: MDA-MB-231
In words: Immunoblot analysis of cellular SRC-1 levels (SRC-1 degradation). Particulars: for SRC-1 (%): normalized to GAPDH and DMSO controls. The data set is classed as cell-based. Here is the method: MDA-MB-231 and HEK293T cells were cultured in a medium containing Dulbecco’s modified eagle medium (DMEM) supplemented with 1% penicillin–streptomycin (PS) and 10% FBS with 5% CO2 at 37 °C.
MDA-MB-231 cells were seeded into 6-well pates (Corning, 3506) at a density of 6 × 10^5 cell per well. After incubation at 37 °C for 24 h, cells were treated with synthesized compounds in Opti-MEM medium for 12, 18, or 24 h. Cells were washed twice with cold Dulbecco’s phosphate-buffered saline (DPBS) prior to cell lysis using a cell lysis buffer (1% Triton X-100, 150 mM NaCl, 50 mM Tris-HCl pH 7.6, 0.1% SDS, 0.5% sodium deoxycholate, and 1 × protease inhibitor cocktail) on ice. Cell lysates were centrifuged at 13,000 rpm at 4 °C for 15 min. The supernatant was collected, and protein concentration was determined using Pierce^TM 660nm protein assay. A 6 × SDS loading buffer was added to the cell lysate and incubated at 95 °C for 5 min. The same amount of protein was subjected to SDS-PAGE and transferred to PVDF membranes. After blocking membranes with 5% skim milk in TBST (Tris-buffered saline with 0.05% Tween 20), membranes were incubated with a primary antibody at 4 °C overnight. Membranes were then incubated with HRP-linked secondary antibody at rt for 1 h and developed with Pico ECL solution. In MG-132 and 17-AAG treatment experiments, MDA-MB-231 cells were cotreated with synthesized compounds and MG-132 (5 μM) or 17-AAG (1 μM) at 37 °C for 18 h.
Background: Immunoblotting shows a protein as a band on a membrane.

A short description of a further data set: Serum stability in FBS. Type of data set: in vitro ADME, bovine. To be noted: 40 μM in DPBS containing 25% FBS, 37 °C, 0–24 h, LC–MS, normalized to control without FBS. The protocol: YL2-HyT6 and ND1-YL2 solutions (200 μL, 40 μM in DPBS containing 25% FBS) were incubated at 37 °C for different time periods (0–24 h). For the precipitation of serum proteins, each sample was treated with 100 μL of 15% TFA and incubated at 4 °C overnight. Final samples were then centrifuged at 15,000 rpm for 10 min and filtrated for analysis using LC–MS with a C18 column. The ratio of the remaining compound (%) was calculated by integrating the chromatographic peak of a compound and normalized in comparison with a control sample (incubated without FBS).

In data set [2] the test system is E-cadherin mRNA in MDA-MB-231 cells. In words: RT-qPCR of E-cadherin mRNA. To be noted: 18 h, RT-qPCR normalized to 18S. The data set is classed as cell-based, human. Here is the method:
Quantitative real-time PCR was performed for CSF-1, E-cadherin, and 18S (as a reference gene) mRNAs. MDA-MB-231 cells (1.2 × 10^5 cells/well) were seeded into a 12-well plate and incubated at 37 °C with 5% CO2 for 24 h. These cells were treated with indicated compounds (YL2, adamantane, ND1-YL2, or YL2-HyT6) for 18 h in Opti-MEM medium. After cells were washed with cold DPBS, mRNAs were isolated from these cells using an AccuPrep Universal RNA extraction kit (Bioneer, Daejeon, Korea). Then 1.5 µg of mRNAs were reverse-transcribed using AccuPower RocketScript Cycle RT PreMix (Bioneer) to generate complementary DNAs. RT-qPCR for CSF-1, E-cadherin, and 18S was performed with a StepOnePlus Real-Time PCR System (Applied Biosystems, Waltham, MA, USA) and SYBR Green mix (Applied Biosystems) according to the manufacturer’s instructions with gene-specific primers (Table 1).

Data set [3] has as its system MDA-MB-231 cells. In words: Matrigel transwell invasion assay. The data set is classed as cell-based, human. Particulars: Matrigel chambers, 24 h. Here is the method:
Matrigel invasion chambers (Corning 354480) were placed in 24-well plates and rehydrated with FBS-free DMEM medium at 37 °C in a CO2 incubator for 2 h. After removing the medium, 4 × 10^4 cells of MDA-MB-231 were seeded into Matrigel invasion chambers and control chambers (Corning, 354578) with 125 µL of Opti-MEM medium. Then another 125 µL of each compound (YL2, adamantane, ND1-YL2, or YL2-HyT6) in Opti-MEM medium was added to each chamber. The bottom of the well was filled with 500 µL of DMEM medium containing 10% FBS 1% PS. The chambers were then incubated at 37 °C with 5% CO2 for 24 h. After removing the medium, the chambers were washed with cold PBS. Then noninvading cells on the upper surface of the membrane were removed by scrubbing with a cotton swab. Cells on the bottom side of the membrane were fixed with 500 µL of 4% formaldehyde for 10 min at rt. After washing with PBS, the bottom side of the chamber was stained with 500 µL of Hoechst 33342 (5 µg/mL) for 5 min at 37 °C in the CO2 incubator. […] The percent invasion (% invasion) of each sample was determined with the following equation:(3) % Invasion=Mean # of cells invading through Matrigel chamber membrane/Mean # of cells migrating through control chamber membrane×100

In the next data set the test system is HEK293T cells. In words: Cell viability assay (Cyto X). Type of data set: cell-based, human. To be noted: 48 h, Opti-MEM. The protocol:
(§1) MDA-MB-231 (1 × 10^4 cells/well) and HEK293T (1 × 10^4 cells/well) cells were seeded into a 96-well plate (Corning, 3595) and incubated at 37 °C with 5% CO2 for 24 h. These cells were then washed twice with DPBS and treated with 1% DMSO or various concentrations of YL2-HyT6 for 48 h in Opti-MEM medium. The remaining cells were then used to measure cell viability using a Cyto X cell viability assay kit (LPS solution, Daejeon, Korea, CYT3000) following the manufacturer’s instruction.

Data set [4] concerns MDA-MB-231 cells. In words: Cell viability assay (Cyto X). The data set is classed as cell-based, human. To be noted: 48 h, Opti-MEM. The protocol: as §1

T1 sequence (Q15788 whole entry): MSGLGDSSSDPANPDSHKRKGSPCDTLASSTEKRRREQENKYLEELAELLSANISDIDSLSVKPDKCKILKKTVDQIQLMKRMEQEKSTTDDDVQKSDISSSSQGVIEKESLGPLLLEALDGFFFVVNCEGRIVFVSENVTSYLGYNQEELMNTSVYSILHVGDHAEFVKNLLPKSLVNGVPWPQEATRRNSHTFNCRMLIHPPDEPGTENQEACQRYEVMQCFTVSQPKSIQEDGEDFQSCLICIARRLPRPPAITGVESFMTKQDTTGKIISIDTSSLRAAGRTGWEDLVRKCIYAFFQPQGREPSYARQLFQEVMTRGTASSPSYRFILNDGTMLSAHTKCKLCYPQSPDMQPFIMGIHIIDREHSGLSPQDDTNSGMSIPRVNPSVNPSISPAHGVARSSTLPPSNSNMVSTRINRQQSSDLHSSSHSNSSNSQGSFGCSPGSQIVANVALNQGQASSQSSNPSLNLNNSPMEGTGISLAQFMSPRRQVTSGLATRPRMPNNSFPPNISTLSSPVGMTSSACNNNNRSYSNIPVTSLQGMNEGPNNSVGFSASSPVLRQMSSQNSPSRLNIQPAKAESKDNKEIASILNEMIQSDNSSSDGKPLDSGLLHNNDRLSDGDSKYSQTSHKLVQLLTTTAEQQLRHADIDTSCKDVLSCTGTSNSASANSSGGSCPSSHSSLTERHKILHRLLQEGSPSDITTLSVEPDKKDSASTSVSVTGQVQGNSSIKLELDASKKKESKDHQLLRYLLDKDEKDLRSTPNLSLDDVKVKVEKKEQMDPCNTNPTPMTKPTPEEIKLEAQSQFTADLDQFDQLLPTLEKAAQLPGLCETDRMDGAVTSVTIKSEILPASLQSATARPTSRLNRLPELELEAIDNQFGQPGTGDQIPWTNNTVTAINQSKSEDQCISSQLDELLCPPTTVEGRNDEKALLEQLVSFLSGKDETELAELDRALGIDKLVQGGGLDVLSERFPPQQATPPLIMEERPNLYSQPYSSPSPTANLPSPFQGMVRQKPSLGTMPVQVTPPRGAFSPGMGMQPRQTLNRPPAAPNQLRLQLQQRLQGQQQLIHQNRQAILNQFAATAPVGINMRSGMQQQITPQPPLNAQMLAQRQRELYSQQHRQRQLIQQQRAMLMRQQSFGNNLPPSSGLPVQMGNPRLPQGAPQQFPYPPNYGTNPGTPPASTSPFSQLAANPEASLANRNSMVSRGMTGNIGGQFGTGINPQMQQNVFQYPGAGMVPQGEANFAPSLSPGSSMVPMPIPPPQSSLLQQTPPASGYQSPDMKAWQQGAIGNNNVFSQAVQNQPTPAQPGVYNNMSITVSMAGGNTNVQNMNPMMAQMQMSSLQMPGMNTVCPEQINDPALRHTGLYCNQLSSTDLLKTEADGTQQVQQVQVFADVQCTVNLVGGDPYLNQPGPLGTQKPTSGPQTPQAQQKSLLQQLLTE

As a reminder, the DC50 is the concentration giving 50% degradation. `CC(C)C[C@H](NC(=O)CCOCCOCCOCCNC(=O)CNC12CC3CC(CC(C3)C1)C2)C(=O)N[C@@H](CC(C)C)C(=O)N1CCC[C@H]1C(=O)N1CCC[C@H]1C(=O)N[C@H](C(=O)N[C@@H](CCC(=O)O)C(=O)N[C@@H](CCC(N)=O)C(=O)N[C@@H](CC(=O)O)C(=O)N[C@@H](CC(C)C)C(=O)N[C@@]1(C)CCC/C=C\CCC[C@@](C)(C(=O)N[C@@H](Cc2ccc(O)cc2)C(N)=O)NC(=O)[C@H](CC2CCCCC2)NC(=O)[C@H](CC(C)C)NC(=O)[C@H](CCCCN)NC1=O)[C@@H](C)O` [YL2-HyT6] (H-[N(1-adamantyl)Gly][PEG3]LLPPTEQDL[S5]KL[Cha][S5]Y-NH2; staple (Z) 12-16; C-terminus assumed): the “SRC-1 (%)” value in data set [1] (MDA-MB-231 cells, 10 μM compound, 18 h) was 30%; in data set [1] (MDA-MB-231 cells, 20 μM compound, 18 h), 20%; in data set [1] (MDA-MB-231 cells, 50 μM compound, 18 h), 13%. Also, the “Time to recovery of SRC-1 after washing out compound” value in data set [1] (MDA-MB-231 cells, 20 μM for 18 h, then washed away) was no more than 12 h. Further, in data set [1] (MDA-MB-231 cells, 20 μM, various time periods up to 24 h), the “Time-dependent SRC-1 degradation” value was “evidently degraded after 6 h”. The “SRC-1 degradation activity compared within YL2-HyT1–6” value in data set [1] (MDA-MB-231 cells, 12, 18 and 24 h) was “most effective SRC-1 degradation activity at all three time points”. The DC50 in data set [1] (MDA-MB-231 cells, 18 h, immunoblot quantitation (Figure S4), three independent experiments, read-out: DC50 (reduction of cellular SRC-1 levels)) is roughly 5 µM. The “SRC-1 levels on cotreatment with Hsp90 inhibitor 17-AAG” value in data set [1] (MDA-MB-231 cells, YL2-HyT6 2.5 μM with 17-AAG (1 μM), 18 h) is reported as “SRC-1 degradation even at a concentration that did not affect SRC-1 levels previously”. Also, the “SRC-1 levels on cotreatment with proteasome inhibitor MG-132” value in data set [1] (MDA-MB-231 cells, cotreated with MG-132 (5 μM), 18 h) is “SRC-1 levels were not changed in the presence of MG-132”. Also, the “Serum stability (remaining compound)” value in “Serum stability in FBS” is on record as “improved stability relative to the peptide-based PROTAC (ND1-YL2)”. For the same molecule, the “E-cadherin mRNA expression level” value in data set [2] is listed as “increase in E-cadherin”. In addition, in the data set with MDA-MB-231 cells [3], the Cell invasion result is recorded as “remarkably decreased the invasion”. Besides, the Cell viability result in the data set on HEK293T cells and in the data set on MDA-MB-231 cells [4] was “little effect on cell viability” throughout.
